According to US20070117839A1, “Two cyclic cinnamide compound” (Eisai R&D Management Co., Ltd., priority 2005, published 2007):

System: Aβ 42 Production
Test: Quantification of Aβ peptide in culture of neurons from rat fetus brain (Aβ ELISA)
Assay type: cell-based
Details: Neuron, 72 h; rat primary neuronal culture (embryonic day 18 Wistar rat cerebral cortex), cultured three days after addition of the compound, Aβx-42 ELISA of the medium; read-out: Activity for reducing Aβ 42 Production IC50
Procedure: Quantification of Aβ Peptide in Culture of Neurons from Rat Fetus Brain
(1) Rat Primary Neuronal Culture
Primary neuronal cultures were prepared from the cerebral cortex of embryonic day 18 Wistar rats (Charles River Japan, Yokohama, Japan). Specifically, the embryos were aseptically removed from pregnant rats under ether anesthesia. The brain was isolated from the embryo and immersed in an ice-cold L-15 medium (Invitrogen Corp. Cat #11415-064, Carlsbad, Calif., USA, or SIGMA L1518, for example). The cerebral cortex was collected from the isolated brain under a stereoscopic microscope. The cerebral cortex fragments collected were enzymatically treated in an enzyme solution containing 0.25% trypsin (Invitrogen Corp. Cat #15050-065, Carlsbad, Calif., USA) and 0.01% DNase (Sigma D5025, St. Louis, Mo., USA) at 37° C. for 30 minutes to disperse the cells. Here, the enzymatic reaction was stopped by adding inactivated horse serum to the solution. The enzymatically treated solution was centrifuged at 1,500 rpm for five minutes to remove the supernatant. 5 to 10 mL of a medium was added to the resulting cell mass. Neurobasal medium (Invitrogen Corp. Cat #21103-049, Carlsbad, Calif., USA) supplemented with 2% B27 supplement (Invitrogen Corp. Cat #17504-044, Carlsbad, Calif., USA), 25 μM 2-mercaptoethanol (2-ME, WAKO Cat #139-06861, Osaka, Japan), 0.5 mM L-glutamine (Invitrogen Corp. Cat #25030-081, Carlsbad, Calif., USA), and Antibiotics-Antimycotics (Invitrogen Corp. Cat #15240-062, Carlsbad, Calif., USA) was used as the medium (Neurobasal/B27/2-ME). However, the above Neurobasal medium not supplemented with 2-ME (Neurobasal/B27) was used for the assay. The cells were redispersed by mild pipetting of the cell mass to which the medium was added. The cell dispersion was filtered through a 40-μm nylon mesh (Cell Strainer, Cat #35-2340, Becton Dickinson Labware, Franklin Lakes, N.J., USA) to remove the remaining cell mass, and thus a neuronal cell suspension was obtained. The neuronal cell suspension was diluted with the medium and then plated in a volume of 100 μl/well at an initial cell density of 5×10^5 cells/cm^2 in a 96-well polystyrene culture plate pre-coated with poly-L or D-lysine (Falcon Cat #35-3075, Becton Dickinson Labware, Franklin Lakes, N.J., USA coated with poly-L-lysine using the method shown below, or BIOCOAT™ cell environments Poly-D-lysine cell ware 96-well plate, Cat #35-6461, Becton Dickinson Labware, Franklin Lakes, N.J., USA). Poly-L-lysine coating was carried out as follows. 100 μg/ml of a poly-L-lysine (SIGMA P2636, St. Louis, Mo., USA) solution was aseptically prepared with a 0.15 M borate buffer (pH 8.5). 100 μl/well of the solution was added to the 96-well polystyrene culture plate and incubated at room temperature for one or more hours or at 4° C. overnight or longer. The coated 96-well polystyrene culture plate was washed with sterile water four or more times, and then dried or rinsed with, for example, sterile PBS or medium, and used for cell plating. The plated cells were cultured in the culture plate at 37° C. in 5% CO2-95% air for one day. Then, the total amount of the medium was replaced with a fresh Neurobasal/B27/2-ME medium, and then the cells were cultured for further three days.
The drug was added to the culture plate on Day 4 of culture as follows. The total amount of the medium was removed from the wells, and 180 μl/well of Neurobasal medium not containing 2-ME and containing 2% B-27 (Neurobasal/B27) was added thereto. A solution of the test compound in dimethyl sulfoxide (hereinafter abbreviated as DMSO) was diluted with Neurobasal/B27 at 10-fold of the final concentration. 20 μl/well of the dilution was added to and sufficiently mixed with the medium. The final DMSO concentration was 1% or less. Only DMSO was added to the control group.
The cells were cultured for three days after addition of the compound, and the total amount of the medium was collected. […]

Question: `COc1cc(/C=C2\CC[C@@H]3CC(C)=C[C@@H](c4ccc(F)cc4)N3C2=O)ccc1-n1cnc(C)c1` [Example 49, (E)-(6S,9aR)-6-(4-fluorophenyl)-3-[3-methoxy-4-(4-methyl-1H-imidazol-1-yl)benzylidene]-8-methyl-1,2,3,6,9,9a-hexahydroquinolizin-4-one] was tested. Which IC50 did it give?
Answer: 210 nM

Question: For `COc1cc(/C=C2\CC[C@H]3CCC[C@@H](c4ccc(F)cc4)N3C2=O)ccc1-n1cnc(C)c1` [Example 8, (E)-(6S,9aR)-6-(4-fluorophenyl)-3-[3-methoxy-4-(4-methyl-1H-imidazol-1-yl)benzylidene]octahydroquinolizin-4-one], which IC50 is on record?
Answer: 73 nM

Question: `COc1cc(/C=C2\CC[C@H]3COC[C@@H](c4ccc(F)c(F)c4)N3C2=O)ccc1-n1cnc(C)c1` [Example 95, (4R,9aS)-4-(3,4-difluorophenyl)-7-{1-[3-methoxy-4-(4-methyl-1H-imidazol-1-yl)phenyl]-(E)-methylidene}hexahydropyrido[2,1-c][1,4]oxazin-6-one] was tested. Which IC50 did it give?
Answer: 87 nM

Question: `COc1cc(/C=C2\CC[C@@H]3CCC[C@@H](c4ccc(F)c(F)c4)N3C2=O)ccc1-n1cnc(C)c1` [Example 65, (E)-(6S,9aS)-6-(3,4-difluorophenyl)-3-[3-methoxy-4-(4-methyl-1H-imidazol-1-yl)benzylidene]octahydroquinolizin-4-one] was tested. Which IC50 did it give?
Answer: 68 nM

Question: How did the IC50 turn out when `COc1cc(/C=C2\CC[C@H]3CC[C@@H](c4cc(F)c(F)c(F)c4)N3C2=O)ccc1-n1cnc(C)c1` [Example 3, (E)-(3S)-(3,4,5-trifluorophenyl)-6-[3-methoxy-4-(4-methyl-1H-imidazol-1-yl)benzylidene]-(9S)-hexahydroindolizin-5-one] was run?
Answer: 63 nM

Question: For `COc1cc(/C=C2\CC[C@H]3CCC[C@@H](c4ccccc4F)N3C2=O)ccc1-n1cnc(C)c1` [Example 43, (E)-(6S,9aR)-6-(2-fluorophenyl)-3-[3-methoxy-4-(4-methyl-1H-imidazol-1-yl)benzylidene]octahydroquinolizin-4-one], which IC50 is on record?
Answer: 66 nM

Question: How did the IC50 turn out when `COc1cc(/C=C2\CC[C@@H]3C[C@H](O)C[C@@H](c4ccc(F)cc4)N3C2=O)ccc1-n1cnc(C)c1` [Example 11, (E)-(6S,8S,9aR)-6-(4-fluorophenyl)-8-hydroxy-3-[3-methoxy-4-(4-methyl-1H-imidazol-1-yl)benzylidene]octahydroquinolizin-4-one] was run?
Answer: 97 nM
